# Data: publication PMC10134273 (Cancer Medicine, 2023)
# Like-named read-outs stand apart in the source and are kept apart here.
# Experiments:
# [1] = tested on: all other kinases (including FGFR1, FGFR2, and FGFR3); details: versus FGFR4; cited from earlier work
# [2] = DLT observation / MTD and RP2D determination (3+3 dose escalation); assay type: in vivo
# Excerpt: (§1) After a screening period of up to 28 days, eligible patients received treatment according to a standard “3+3” dose escalation design. […] Treatment continued until unacceptable toxicity, progressive disease, and/or at the discretion of the Investigator or patient's withdrawal of consent.
# [3] = tested on: HCC or solid tumors with positive FGFR4 and KLB expression; details: cited from earlier work
# [4] = Phase 1 plasma pharmacokinetics of EVER4010001; assay type: in vivo, human
# Excerpt: as §1
# FGFR4 pathway = assay: Exploratory biomarkers (total bile acids, C4, circulating FGF19); assay type: in vivo, human
# Description: (§2) Secondary endpoints included PK parameters (e.g., maximum observed concentration [C max] and area under the concentration‐time curve [AUC]). Secondary endpoints included objective response rate (ORR), disease control rate (DCR), and duration of response (DOR) as assessed by investigator per RECIST v1.1. Tumor responses were assessed according to RECIST v1.1; computerized tomography scanning or magnetic resonance imaging was performed every 6 weeks in the first 48 weeks, and every 12 weeks thereafter. Secondary endpoints also included safety and tolerability (adverse events [AEs] as defined by the National Cancer Institute‐Common Terminology Criteria for Adverse Events CTCAE v5.0) and exploratory biomarkers (total bile acids, 7‐α‐hydroxy‐4‐cholesten‐3‐one [C4] and circulating FGF19). Safety follow‐up visit was performed within 30 days (±5 days) and 90 days (±7 days) after the last dose of the study treatment.
# [5] = Description: as §2
# All patients who received at least one dose of the study treatment in the Phase 1 part of the study were included in the safety and efficacy analyses. Dose escalation and MTD assessment were primarily based on DLTs which occurred within the 28‐day observation period. Descriptive statistics were used for demographics, safety, and efficacy data. The number of patients who experienced DLTs (within and outside of the 28‐day DLT assessment period) was tabulated for each dose level. The sample size of patients required for dose escalation were determined based on the ‘3+3’ design and DLTs observed as the trial progressed.
# FGFR4 = tested on: FGFR4; set-up: method as in PMID 32930584; details: kinase biochemical assays; read-out: half-maximal inhibitory concentration (IC50); cited from earlier work
# [6] = CFGF401X2101 trial, Grade ≥3 TEAE
# [7] = Cycle 1, Day 1, 40 mg BID (N=3) + pembrolizumab
# [8] = Cycle 1, Day 1, 60 mg BID (N=3) + pembrolizumab
# [9] = Cycle 1, Day 1, 80 mg BID (N=6) + pembrolizumab
# [10] = Cycle 1, Day 1, 100 mg BID (N=7) + pembrolizumab
# [11] = Cycle 1, Day 8, 40 mg BID (N=3) + pembrolizumab
# [12] = Cycle 1, Day 8, 60 mg BID (N=3) + pembrolizumab
# [13] = Cycle 1, Day 8, 80 mg BID (N=6) + pembrolizumab
# [14] = Cycle 1, Day 8, 100 mg BID (N=7) + pembrolizumab
# [15] = most patients treated with 40, 60, 80, and 100 mg
# [16] = 40 mg BID (N=3) + pembrolizumab
# [17] = 60 mg BID (N=3) + pembrolizumab
# [18] = 80 mg BID (N=6) + pembrolizumab
# [19] = 100 mg BID (N=7) + pembrolizumab
smiles,measurement,setting,value
"COCCNc1cc(NC(=O)N2CCCc3cc(CN4CCN(C)CC4=O)c(C=O)nc32)ncc1C#N [EVER4010001, roblitinib]","selectivity against all other kinases (including FGFR1, FGFR2, and FGFR3)",[1],[…]
same,DLTs during whole study: Alanine aminotransferase increased,"[2]; human, in vivo",1 (5.9) n (%)
same,DLTs during whole study: Aspartate aminotransferase increased,"[2]; human, in vivo",2 (11.8) n (%)
same,Total DLTs during whole study,"[2]; human, in vivo",2 (11.8) n (%)
same,DLTs within 28 days: Alanine aminotransferase increased,"[2]; human, in vivo, 28 days",1 (5.9) n (%)
same,DLTs within 28 days: Aspartate aminotransferase increased,"[2]; human, in vivo, 28 days",2 (11.8) n (%)
same,Total DLTs within 28 days,"[2]; human, in vivo, 28 days",2 (11.8) n (%)
same,maximum tolerated dose (MTD),[2]; in combination with pembrolizumab 200 mg Q3W,80 mg BID
same,increased ALT,[3]; [6],15.0%
same,increased AST,[3]; [6],18.8%
same,increased ALT,"[3]; CFGF401X2101 trial, any grade",43.8%
same,ORR,[3]; CFGF401X2101 trial,8%
same,diarrhea suspected to be related to the study drug,[3]; CFGF401X2101 trial,69%
same,recommended Phase 2 dose (RP2D),"[3]; QD doses 50-150 mg, fasted or unfasted patients",120 mg QD
same,geometric mean Cmax (geometric coefficient of variation %),"[3]; RP2D 120 mg FGF401 QD, CFGF401X2101 trial",1120 ng/mL
same,recommended Phase 2 dose (RP2D),[3]; in combination with spartalizumab 300 mg Q3W,120 mg QD
same,Geometric mean AUC0–t (geometric CV%),[4]; [7],2363.64 (9.59) Hour·ng/ml
same,Mean t1/2 (SD),[4]; [7],4.92 (0.16) Hour
same,"Median tmax (Min, Max)",[4]; [7],"0.550 (0.52, 1.05) Hour"
same,Geometric mean AUC0–t (geometric CV%),[4]; [8],4464.03 (37.96) Hour·ng/ml
same,Mean t1/2 (SD),[4]; [8],4.00 (0.36) Hour
same,"Median tmax (Min, Max)",[4]; [8],"0.970 (0.93, 1.05) Hour"
same,Geometric mean AUC0–t (geometric CV%),[4]; [9],3774.38 (14.53) Hour·ng/ml
same,Mean t1/2 (SD),[4]; [9],4.64 (1.44) Hour
same,"Median tmax (Min, Max)",[4]; [9],"1.030 (0.23, 2.00) Hour"
same,Geometric mean AUC0–t (geometric CV%),[4]; [10],5459.69 (8.34) Hour·ng/ml
same,Mean t1/2 (SD),[4]; [10],4.22 (0.69) Hour
same,"Median tmax (Min, Max)",[4]; [10],"1.000 (0.52, 2.05) Hour"
same,Geometric mean AUC0–t (geometric CV%),[4]; [11],2084.60 (35.99) Hour·ng/ml
same,Mean t1/2 (SD),[4]; [11],4.90 (2.59) Hour
same,"Median tmax (Min, Max)",[4]; [11],"1.030 (0.57, 2.00) Hour"
same,Geometric mean AUC0–t (geometric CV%),[4]; [12],3212.66 (27.61) Hour·ng/ml
same,Mean t1/2 (SD),[4]; [12],5.78 (1.12) Hour
same,"Median tmax (Min, Max)",[4]; [12],"0.970 (0.93, 1.07) Hour"
same,Geometric mean AUC0–t (geometric CV%),[4]; [13],4284.35 (25.05) Hour·ng/ml
same,Mean t1/2 (SD),[4]; [13],4.12 (0.90) Hour
same,"Median tmax (Min, Max)",[4]; [13],"0.990 (0.25, 1.05) Hour"
same,Geometric mean AUC0–t (geometric CV%),[4]; [14],6214.09 (24.13) Hour·ng/ml
same,Mean t1/2 (SD),[4]; [14],4.97 (0.55) Hour
same,"Median tmax (Min, Max)",[4]; [14],"0.970 (0.50, 2.97) Hour"
same,steady state reached,"[4]; after repeated BID dosing, based on T1/2",before Cycle 1 Day 8
same,Cmax,"[4]; human, plasma, oral, Cycle 1, Day 1, 40 mg BID (N=3) + pembrolizumab, read-out: Geometric mean Cmax (geometric CV%)",560 ng/mL
same,Cmax,"[4]; human, plasma, oral, Cycle 1, Day 1, 60 mg BID (N=3) + pembrolizumab, read-out: Geometric mean Cmax (geometric CV%)",958 ng/mL
same,Cmax,"[4]; human, plasma, oral, Cycle 1, Day 1, 80 mg BID (N=6) + pembrolizumab, read-out: Geometric mean Cmax (geometric CV%)",897 ng/mL
same,Cmax,"[4]; human, plasma, oral, Cycle 1, Day 1, 100 mg BID (N=7) + pembrolizumab, read-out: Geometric mean Cmax (geometric CV%)",1340 ng/mL
same,Cmax,"[4]; human, plasma, oral, Cycle 1, Day 8, 40 mg BID (N=3) + pembrolizumab, read-out: Geometric mean Cmax (geometric CV%)",427 ng/mL
same,Cmax,"[4]; human, plasma, oral, Cycle 1, Day 8, 60 mg BID (N=3) + pembrolizumab, read-out: Geometric mean Cmax (geometric CV%)",749 ng/mL
same,Cmax,"[4]; human, plasma, oral, Cycle 1, Day 8, 80 mg BID (N=6) + pembrolizumab, read-out: Geometric mean Cmax (geometric CV%)",991 ng/mL
same,Cmax,"[4]; human, plasma, oral, Cycle 1, Day 8, 100 mg BID (N=7) + pembrolizumab, read-out: Geometric mean Cmax (geometric CV%)",1330 ng/mL
same,AUC(0-t),"[4]; human, plasma, oral, Cycle 1 Day 1, range across dose levels, read-out: geometric mean AUC0–t",2360 to 5460 ng·h/mL
same,Cmax,"[4]; human, plasma, oral, Cycle 1 Day 1, range across dose levels, read-out: geometric mean Cmax",560 to 1340 ng/mL
same,AUC(0-t),"[4]; human, plasma, oral, range across 40-100 mg BID dose levels (abstract), read-out: AUC0–t",2370 to 5480 ng·h/mL
same,Cmax,"[4]; human, plasma, oral, range across 40-100 mg BID dose levels (abstract), read-out: maximum observed concentration (Cmax)",606 to 1350 ng/mL
same,half-life,"[4]; human, plasma, oral, range across 40-100 mg BID dose levels, read-out: Mean plasma terminal half-life (T1/2)",240 to 295 min
same,Tmax,"[4]; human, plasma, oral, range across 40-100 mg BID dose levels, read-out: Median time to peak concentration (Tmax)",33 to 61.8 min
same,circulating FGF19,FGFR4 pathway; [15],elevated
same,plasma C4 (7-α-hydroxy-4-cholesten-3-one),FGFR4 pathway; [15],elevated
same,Grade 5 TEAEs related to EVER4010001 and/or pembrolizumab,[5]; [16],0 n (%)
same,SAEs: Death,[5]; [16],0 n (%)
same,Grade 5 TEAEs related to EVER4010001 and/or pembrolizumab,[5]; [17],0 n (%)
same,SAEs: Death,[5]; [17],1 (33.3) n (%)
same,Grade 5 TEAEs related to EVER4010001 and/or pembrolizumab,[5]; [18],0 n (%)
same,SAEs: Death,[5]; [18],0 n (%)
same,Grade 5 TEAEs related to EVER4010001 and/or pembrolizumab,[5]; [19],0 n (%)
same,SAEs: Death,[5]; [19],0 n (%)
same,Grade 5 TEAEs related to EVER4010001 and/or pembrolizumab,[5]; Total (N=19),0 n (%)
same,SAEs: Death,[5]; Total (N=19),1 (5.3) n (%)
same,Any TEAE: Alanine aminotransferase increased,"[5]; human, in vivo",9 (47.4) n (%)
same,Any TEAE: Anemia,"[5]; human, in vivo",9 (47.4) n (%)
same,Any TEAE: Aspartate aminotransferase increased,"[5]; human, in vivo",11 (57.9) n (%)
same,Any TEAE: Gastrointestinal disorders,"[5]; human, in vivo",19 n (%)
same,EVER4010001-related TEAEs,"[5]; human, in vivo",19 (100) n (%)
same,EVER4010001-related TEAEs: Increased Blood Alkaline Phosphatase,"[5]; human, in vivo",5 (26.3) n (%)
same,SAEs: Device dislocation,"[5]; human, in vivo",1 (5.3) n (%)
same,SAEs: Product issues,"[5]; human, in vivo",1 (5.3) n (%)
same,TEAEs leading to discontinuation: Aspartate aminotransferase increased,"[5]; human, in vivo",2 [10.5%] n (%)
same,TEAEs leading to discontinuation: Blood bilirubin increased,"[5]; human, in vivo",1 [5.3%] n (%)
same,TEAEs resulting in temporary interruption of EVER4010001,"[5]; human, in vivo",4 [21.0%] n (%)
same,Any TEAE: Anemia,"[5]; human, in vivo, 93.4 days",0 n (%)
same,Any TEAE: Diarrhea,"[5]; human, in vivo, 93.4 days",1 (5.3) n (%)
same,SAEs: Gastrointestinal disorders,"[5]; human, in vivo, 93.4 days",1 (5.3) n (%)
same,SAEs: Pancreatitis,"[5]; human, in vivo, 93.4 days",1 (5.3) n (%)
same,TEAEs leading to discontinuation: Aspartate aminotransferase increased,"[5]; human, in vivo, 93.4 days",2 (10.5) n (%)
same,TEAEs leading to discontinuation: Blood bilirubin increased,"[5]; human, in vivo, 93.4 days",1 (5.3) n (%)
same,TEAEs leading to discontinuation: Investigations,"[5]; human, in vivo, 93.4 days",3 (15.8) n (%)
same,TEAEs leading to discontinuation: Vascular disorders,"[5]; human, in vivo, 93.4 days",1 (5.3) n (%)
same,TEAEs resulting in temporary interruption of EVER4010001,"[5]; human, in vivo, 93.4 days",4 (21.0) n (%)
